Laboratory results taken from patent EP4324461A1, “(E)-N-CINAMOYLAMINOALKANOLES WITH MELANOGENESIS INHIBITORY ACTIVITY” (UNIWERSYTET JAGIELLONSKI, priority 2022, dated 2024).

Tests used:
S. typhimurium TA98 = test: Ames microplate test, TA98; format: cell-based, Salmonella typhimurium;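 note: reference level is the mean solvent-control yellow wells plus SD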
Description: (§1) Bacteria were grown overnight in growth medium.
(§2) Table 9. Ames microplate test results.

Primary melanocytes [1] = test: Safety, MTT test in primary melanocytes; format: cell-based; conditions: 48 hours
Description: (§3) In order to test the safety of the compounds, both normal human cells were used: keratinocytes (HaCaT), fibroblasts (BJ), primary melanocytes that occur in the skin, as well as human cancer cells: the hepatocarcinoma line HepG2 and the neuroblastoma line SH-SY5Y, which are considered a model for the assessment of hepatocytotoxicity and neurocytotoxicity. The concentrations of the tested compounds in the range of 250-100 µM were used in the studies. The cell lines used in the research were purchased from the American Type Culture Collection (ATCC) and were cultured in media recommended by the manufacturer with the addition of FBS and antibiotics in an incubator ensuring appropriate culture conditions, i.e. humidity, temperature and CO2 concentration. Cells were seeded into multiwell plates and incubated with the test compounds for 48 hours. After this time, MTT and LDH tests were performed to assess cell viability. The MTT test is based on the ability to transform the substrate: [3-(4,5-dimethyl-2-thiazolyl)-2,5-diphenyl-2H-tetrazolium bromide into a colored product only by living cells. The absorbance at 570 nm, which corresponds to the absorption maximum for the product, is directly proportional to cell viability. The LDH test is based on testing the activity of the enzyme lactate dehydrogenase in the culture medium, which is released from cells as a result of damage to the cell membrane, e.g. as a result of cell death. Triton X-100 was used as a positive control in the test. The determination is colorimetric, the substrate is transformed by the released enzyme into a colored product, an increase in absorbance indicates a larger amount of the released enzyme, and thus confirms greater damage to cell membranes. Tables 7 and 8 present the results obtained, which correspond to the viability of cells incubated with the compounds in relation to the viability of cells constituting a control sample, i.e. incubated with the solvent (DMSO) at the same concentration as in the case of the groups tested in the MTT test or in relation to the results obtained for the Triton X-100 positive control in the LDH test. They indicate that the compounds are safe at the concentrations tested. Table 7. Viability of tested normal human cell lines: keratinocytes (HaCaT), fibroblasts (BJ) and primary melanocytes after incubation with the tested compounds - determination in the MTT test (% of solvent control ± SD) and LDH (percentage of positive control - Triton X-100.

Keratinocytes (HaCaT) [2] = test: Safety, LDH test in keratinocytes; format: cell-based; conditions: 48 hours, positive control Triton X-100
Description: as §3

S. typhimurium TA100 = test: Ames microplate test, TA100; format: cell-based, Salmonella typhimurium;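 note: reference level is the mean solvent-control yellow wells plus SD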
Description: as §1, §2

[3] = tested on: Chinese hamster ovary cell line (CHO-K1); test: Cytotoxicity in CHO-K1 cells (MTT) before the micronucleus test; format: cell-based; conditions: 24 hours
In short: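 CHO-K1 cells in F-12K with 10% FBS, 37 °C, 5% CO2, exposed to compounds for 24 hours. Viability by MTT, relative to DMSO vehicle at matching concentration; used to pick safe concentrations for the micronucleus test.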

[4] = tested on: human reconstructed epidermis model EpiDerm™; test: Extended skin irritation test in reconstructed human epidermis (EpiDerm), 2 and 7 days; format: cell-based; conditions: 1.0% in 50% PEG (10 µL)
Description: In order to perform extended skin irritation (safety) tests on the reconstructed human epidermis, the exposure time to the tested compounds was extended to 2 and 7 days in the human reconstructed epidermis model EpiDerm™ from MatTek. The epidermis was cultured according to the manufacturer's recommendations, using appropriate multi-well plates and culture media. Solutions of the tested compounds were applied to the epidermis using a positive displacement pipette and distributed using a sterile glass bulb headed Pasteur pipette. […] The epidermis was cultured in an incubator ensuring appropriate humidity, temperature (37 °C) and CO2 concentration (5%). The medium was replaced daily. After an appropriate incubation time, i.e. 2 days or 7 days, the epidermis was rinsed with sterile DPBS and incubated with MTT (Thiazolyl Blue Tetrazolium bromide) solution at 37 °C for 3 hours. After this time, a purple color of formazan was observed, correlated with tissue viability. […] Moreover, in the medium collected after the first 24 hours of EpiDerm epidermis culture, the level of interleukin 1α (Il-1α), which is a mediator of inflammation, was determined. Its level correlates with the unfavorable (irritating) effect of the tested substances on the epidermis. The level of IL-1α was determined using the Cayman Elisa test. […] Table 6. Viability results and results of interleukin 1α concentration measurement in the culture medium in the irritation test in the reconstructed human epidermis model EpiDerm.

Keratinocytes (HaCaT) [5] = test: Safety, MTT test in keratinocytes; format: cell-based; conditions: 48 hours
Description: as §3

neuroblastoma SH-SY5Y = test: Safety, MTT test in SH-SY5Y; format: cell-based; conditions: 48 hours
Description: as §3

Hepatocarcinoma HepG2 [6] = test: Safety, MTT test in HepG2; format: cell-based; conditions: 48 hours
Description: as §3

Primary melanocytes [7] = test: Safety, LDH test in primary melanocytes; format: cell-based; conditions: 48 hours, positive control Triton X-100
Description: as §3

Hepatocarcinoma HepG2 [8] = test: Safety, LDH test in HepG2; format: cell-based; conditions: 48 hours, positive control Triton X-100
Description: as §3

O=C(/C=C/c1ccccc1)NCCCCCO [Compound A-133, (2E)-N-(5-hydroxypentyl)-3-phenylprop-2-enamide]
Increase in the number of yellow wells compared to the reference level (S. typhimurium TA98; 0.5 mM, +S9): 0.50
Increase in the number of yellow wells compared to the reference level (S. typhimurium TA98; 0.5 mM, without S9): 0.44
Increase in the number of yellow wells compared to the reference level (S. typhimurium TA98; 1.0 mM, +S9): 0.67
Increase in the number of yellow wells compared to the reference level (S. typhimurium TA98; 1.0 mM, without S9): 0.33
Increase in the number of yellow wells compared to the reference level (S. typhimurium TA98; 2.0 mM, +S9): 1.00
Increase in the number of yellow wells compared to the reference level (S. typhimurium TA98; 2.0 mM, without S9): 0.67
Primary melanocytes MTT (Primary melanocytes [1]; 100 µM): 103.69±2.57 % of solvent control
Primary melanocytes MTT (Primary melanocytes [1]; 150 µM): 101.88±2.47 % of solvent control
Primary melanocytes MTT (Primary melanocytes [1]; 200 µM): 97.05±2.96 % of solvent control
Primary melanocytes MTT (Primary melanocytes [1]; 250 µM): 88.88±2.26 % of solvent control
Keratinocytes (HaCaT) LDH (Keratinocytes (HaCaT) [2]; 100 µM): 3.23 percentage of positive control
Keratinocytes (HaCaT) LDH (Keratinocytes (HaCaT) [2]; 150 µM): 3.08 percentage of positive control
Keratinocytes (HaCaT) LDH (Keratinocytes (HaCaT) [2]; 200 µM): 6.38 percentage of positive control
Keratinocytes (HaCaT) LDH (Keratinocytes (HaCaT) [2]; 250 µM): 19.58 percentage of positive control
Increase in the number of yellow wells compared to the reference level (S. typhimurium TA100; 0.5 mM, +S9): 0.83
Increase in the number of yellow wells compared to the reference level (S. typhimurium TA100; 0.5 mM, without S9): 0.60
Increase in the number of yellow wells compared to the reference level (S. typhimurium TA100; 1.0 mM, +S9): 0.78
Increase in the number of yellow wells compared to the reference level (S. typhimurium TA100; 1.0 mM, without S9): 1.03
Increase in the number of yellow wells compared to the reference level (S. typhimurium TA100; 2.0 mM, +S9): 0.61
Increase in the number of yellow wells compared to the reference level (S. typhimurium TA100; 2.0 mM, without S9): 0.57
% Viability [mean] ([3]; 100 µM): 94.6%
% Viability [mean] ([3]; 150 µM): 97.2%
% Viability [mean] ([3]; 200 µM): 89.1%
Il-1α in culture medium ([4]; medium after the first 24 hours): 34.99 ± 1.17 pg/mL
Viability [% of control, mean±SD] ([4]; 2 days): 107.19±7.45 % of control
Viability [% of control, mean±SD] ([4]; 7 days): 107.26±21.82 % of control
Keratinocytes (HaCaT) MTT (Keratinocytes (HaCaT) [5]; 100 µM): 101.35±2.17 % of solvent control
Keratinocytes (HaCaT) MTT (Keratinocytes (HaCaT) [5]; 150 µM): 101.40±2.08 % of solvent control
Keratinocytes (HaCaT) MTT (Keratinocytes (HaCaT) [5]; 200 µM): 101.51±2.49 % of solvent control
Keratinocytes (HaCaT) MTT (Keratinocytes (HaCaT) [5]; 250 µM): 95.53±2.80 % of solvent control
Neuroblastoma SH-SYSY MTT (neuroblastoma SH-SY5Y; 100 µM): 101.50±3.33 % of solvent control
Neuroblastoma SH-SYSY MTT (neuroblastoma SH-SY5Y; 150 µM): 100.75±3.01 % of solvent control
Neuroblastoma SH-SYSY MTT (neuroblastoma SH-SY5Y; 200 µM): 100.62±5.99 % of solvent control
Neuroblastoma SH-SYSY MTT (neuroblastoma SH-SY5Y; 250 µM): 100.41±1.87 % of solvent control
Hepatocarcinoma HepG2 MTT (Hepatocarcinoma HepG2 [6]; 100 µM): 104.96±7.60 % of solvent control
Hepatocarcinoma HepG2 MTT (Hepatocarcinoma HepG2 [6]; 150 µM): 100.66±7.39 % of solvent control
Hepatocarcinoma HepG2 MTT (Hepatocarcinoma HepG2 [6]; 200 µM): 99.09±1.60 % of solvent control
Hepatocarcinoma HepG2 MTT (Hepatocarcinoma HepG2 [6]; 250 µM): 98.92±2.34 % of solvent control
Primary melanocytes LDH (Primary melanocytes [7]; 100 µM): 4.68 percentage of positive control
Primary melanocytes LDH (Primary melanocytes [7]; 150 µM): 7.59 percentage of positive control
Primary melanocytes LDH (Primary melanocytes [7]; 200 µM): 16.71 percentage of positive control
Primary melanocytes LDH (Primary melanocytes [7]; 250 µM): 19.45 percentage of positive control
Hepatocarcinoma HepG2 LDH (Hepatocarcinoma HepG2 [8]; 100 µM): 5.31 percentage of positive control
Hepatocarcinoma HepG2 LDH (Hepatocarcinoma HepG2 [8]; 150 µM): 7.07 percentage of positive control
Hepatocarcinoma HepG2 LDH (Hepatocarcinoma HepG2 [8]; 200 µM): 9.65 percentage of positive control
Hepatocarcinoma HepG2 LDH (Hepatocarcinoma HepG2 [8]; 250 µM): 16.13 percentage of positive control
